Here are results for 23 molecules from PMC4063337, “Structure–Activity Relationships of Quinoxaline-Based 5-HT3A and 5-HT3AB Receptor-Selective Ligands” (Chemmedchem, 2013).

For one assay, the target named is T1, 5-HT3AB receptor (Homo sapiens, UniProt O95264+P46098).
T1 construct: gene HTR3A; heteromeric (pentameric) receptor expressed recombinantly in HEK293 cells; cell membranes; sites at A+A- and possibly A+B- interfaces; with 5-hydroxytryptamine receptor 3B
T1 sequence (P46098 24-478): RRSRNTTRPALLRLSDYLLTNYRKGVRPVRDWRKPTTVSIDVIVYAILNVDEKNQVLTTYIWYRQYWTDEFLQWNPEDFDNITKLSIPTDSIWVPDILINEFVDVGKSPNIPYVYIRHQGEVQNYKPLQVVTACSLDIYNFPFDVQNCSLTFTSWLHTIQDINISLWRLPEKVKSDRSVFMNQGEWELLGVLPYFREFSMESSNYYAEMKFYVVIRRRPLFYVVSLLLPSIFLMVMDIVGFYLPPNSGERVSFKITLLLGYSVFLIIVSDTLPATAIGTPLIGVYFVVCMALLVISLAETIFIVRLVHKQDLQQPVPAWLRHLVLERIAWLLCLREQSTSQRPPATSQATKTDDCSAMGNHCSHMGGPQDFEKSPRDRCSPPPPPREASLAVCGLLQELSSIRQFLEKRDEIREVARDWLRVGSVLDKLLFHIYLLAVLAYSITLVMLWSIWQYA
T1 sequence (O95264 22-441): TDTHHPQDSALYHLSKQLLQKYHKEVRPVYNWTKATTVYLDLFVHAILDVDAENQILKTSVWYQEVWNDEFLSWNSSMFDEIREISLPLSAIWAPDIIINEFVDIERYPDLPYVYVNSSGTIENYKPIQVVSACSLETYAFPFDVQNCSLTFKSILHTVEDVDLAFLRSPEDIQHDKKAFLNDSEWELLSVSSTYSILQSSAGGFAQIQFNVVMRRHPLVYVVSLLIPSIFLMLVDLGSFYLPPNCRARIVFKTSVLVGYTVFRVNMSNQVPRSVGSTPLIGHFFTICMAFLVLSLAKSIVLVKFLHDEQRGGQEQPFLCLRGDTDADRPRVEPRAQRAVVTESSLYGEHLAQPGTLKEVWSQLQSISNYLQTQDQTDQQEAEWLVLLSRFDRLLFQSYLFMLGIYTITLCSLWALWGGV
Description: [3H]granisetron competition binding, HEK293 membranes. Particulars: for Ki: read-out: pKi (AB) (converted). The text has this:
[3H]granisetron competition binding, HEK293 membranes on 5-HT3AB receptor

Another assay has as its target T2, 5-HT3A receptor (Homo sapiens, UniProt P46098).
T2 construct: gene HTR3A; homomeric (pentameric) receptor expressed recombinantly in HEK293 cells; cell membranes
T2 sequence (P46098 24-478): T1 sequence (P46098 24-478)
The description is as above. The settings on record: for Ki: read-out: pKi (A) (converted); for pKi (A): 0.7 nM [3H]granisetron, 10 mM HEPES pH 7.4, 4 °C, at least 24 h. The text has this: [3H]granisetron competition binding, HEK293 membranes on 5-HT3A receptor

Each structure is given as a SMILES string.

Take `CN1CCN(c2nc3ccccc3nc2Br)CC1` [compound 14, 2-Bromo-3-(4-methylpiperazin-1-yl)quinoxaline]: the Ki at 5-HT3AB receptor is 1.41 nM; on 5-HT3A receptor, 0.49 nM.
For `CN1CCN(c2nc3ccccc3nc2C(F)(F)F)CC1` [compound 27, 27], the figures for the Ki at 5-HT3AB receptor and on 5-HT3A receptor were 38 nM and 44.7 nM, respectively.
The matching figures for `CN1CCN(c2nc3cc(Cl)c(Cl)cc3[nH]c2=O)CC1` [compound 34, 34]: 72.4 nM and 50.1 nM.
For `CN1CCN(c2cnc3cc(Cl)ccc3n2)CC1` [compound 33, 33], the Ki is 102 nM on 5-HT3AB receptor and 16.2 nM on 5-HT3A receptor.
Regarding `CN1CCCN(c2nc3ccccc3nc2Cl)CC1` [compound 16, 2-Chloro-3-(4-methyl-1,4-diazepan-1-yl)quinoxaline], the Ki was 4.57 nM on 5-HT3AB receptor and 0.776 nM on 5-HT3A receptor.
`CNC1CCN(c2nc3ccccc3nc2Cl)C1` (stereo not shown) [compound 18, 1-(3-Chloroquinoxalin-2-yl)-N-methylpyrrolidin-3-amine]: the figures for the Ki at 5-HT3AB receptor and at 5-HT3A receptor were 214 nM and 204 nM, respectively.
In the same order, the values of `CN1CCN(c2nc3cc(Cl)c(Cl)cc3nc2Cl)CC1` [compound 11, 2,6,7-Trichloro-3-(4-methylpiperazin-1-yl)quinoxaline] are 33.1 nM and 8.13 nM.
`CCc1nc2ccccc2nc1N1CCN(C)CC1` [compound 6, 2-Ethyl-3-(4-methylpiperazin-1-yl)quinoxaline]: the values for the Ki at 5-HT3AB receptor and at 5-HT3A receptor were 1.45 nM and 0.631 nM, respectively.
Take `COc1nc2ccccc2nc1N1CCN(C)CC1` [compound 28, 28]: the Ki at 5-HT3AB receptor was 4.57 nM; at 5-HT3A receptor, 0.661 nM.
Take `CN1CCN(c2nc3ccccc3nc2Cl)CC1` [VUF10166, 2-chloro-3-(4-methylpiperazin-1-yl)quinoxaline]: the Ki at 5-HT3AB receptor is 12.6 nM. Also, the “pKi (A)” value at 5-HT3A receptor amounted to 9.82±0.26.
Consider `Cc1nc2ccccc2nc1N1CCN(C)CC1` [compound 26, 26], for which the Ki on 5-HT3AB receptor is 3.8 nM; on 5-HT3A receptor it was 2.57 nM.
Consider `CN1CCN(c2nc3ccccc3[nH]c2=O)CC1` [compound 1, 3-(4-methylpiperazin-1-yl)quinoxalin-2-ol], for which the Ki at 5-HT3AB receptor was 0.437 nM; on 5-HT3A receptor, 1.17 nM.
Regarding `CN1CCN(c2nc3ccc(Cl)cc3[nH]c2=O)CC1` [compound 22, 7-chloro-3-(4-methylpiperazin-1-yl)quinoxalin-2(1H)-one], the Ki is 7.24 nM at 5-HT3AB receptor and 31.6 nM on 5-HT3A receptor.
Take `CN1CCN(c2cnc3cc(Cl)c(Cl)cc3n2)CC1` [compound 7, 6,7-Dichloro-2-(4-methylpiperazin-1-yl)quinoxaline]: the Ki at 5-HT3AB receptor was 8.51 nM; on 5-HT3A receptor, 3.89 nM.
As for `CNC1CCN(c2cnc3ccccc3n2)C1` (stereo not shown) [compound 21, N-Methyl-1-(quinoxalin-2-yl)pyrrolidin-3-amine], the Ki on 5-HT3AB receptor was 77.6 nM; at 5-HT3A receptor, 32.4 nM.
As for `CN1CCN(c2nc3ccc(Cl)cc3nc2Cl)CC1` [compound 23, 3,6-Dichloro-2-(4-methylpiperazin-1-yl)quinoxaline], the Ki was 14.1 nM on 5-HT3AB receptor and 1.12 nM at 5-HT3A receptor.
On to `CN1CCN(c2nc3ccccc3nc2OCc2ccccc2)CC1` [compound 32, 32], for which the Ki on 5-HT3AB receptor was 75.9 nM; at 5-HT3A receptor, 129 nM.
`CCOc1nc2ccccc2nc1N1CCN(C)CC1` [compound 29, 29]: the results for the Ki on 5-HT3AB receptor and at 5-HT3A receptor were 5.75 nM and 1 nM, respectively.
On to `CN1CCN(c2nc3ccccc3nc2N)CC1` [compound 10, 3-(4-Methylpiperazin-1-yl)quinoxalin-2-amine], for which the Ki at 5-HT3AB receptor is 30.9 nM; on 5-HT3A receptor, 2.95 nM.
With `CN1CCCN(c2cnc3ccccc3n2)CC1` [compound 19, 2-(4-Methyl-1,4-diazepan-1-yl)quinoxaline], the Ki at 5-HT3AB receptor is 33.1 nM; on 5-HT3A receptor, 8.13 nM.
As for `CN1CCN(c2nc3ccccc3nc2OC2CCCCC2)CC1` [compound 30, 30], the Ki on 5-HT3AB receptor is 195 nM; on 5-HT3A receptor, 537 nM.
Take `CN1CCN(c2cnc3ccccc3n2)CC1` [compound 24, 2-(4-methylpiperazin-1-yl)quinoxaline]: the “pKi (AB)” value on 5-HT3AB receptor (0.7 nM [3H]granisetron, 10 mM HEPES pH 7.4, 4 °C, at least 24 h) came to 9.13±0.30. Besides, at 5-HT3A receptor, the “pKi (A)” value is on record as 8.21±0.26.
Turning to `CN1CCN(c2nc3ccccc3nc2Oc2ccccc2)CC1` [compound 31, 31], the results for the Ki on 5-HT3AB receptor and at 5-HT3A receptor were 170 nM and 87.1 nM, respectively.
